Measured values reported in article PMC13415951 (Journal of Experimental Botany, 2026).
Positions count from the first letter of the chain named.

Experiments:
[1] = tested on: B. distachyon line OE-10R14; parameters: species or system Brachypodium distachyon; details: in vivo
[2] = tested on: roots of Brachypodium distachyon seedlings; assay: Extracts from B. distachyon roots exposed to mycotoxin, LC-MS/MS; assay type: in vivo; details: 24 h; for D3G synthesis in the presence of CUL: 50 mg l^−1 DON, 10 mg l^−1 CUL
Description: (§1) Seedlings of Apogee and B. distachyon with roots 1–2 cm long were incubated in full-strength MS without sucrose and containing 50 mg l^−1 DON and/or either 50 mg l^−1 CUL (Apogee) or 10 mg l^−1 CUL (B. distachyon). The seedlings were placed into sterile 2 ml tubes containing 500 µl medium such that only the roots were submerged. After 24 h incubation under the same conditions as specified above for the elongation assays, the roots were cut from the seedlings, washed with 10% ethanol, briefly dried with tissue paper, and weighed. The roots were then ground in the Retsch Ball Mill MM 400 for 1 min at 30× s^−1 using two 5 mm steel balls, after which 500 µl methanol was added and the roots were extracted for 2 h at room temperature. The concentrations of DON, D3G, CUL, and CUL-glucosides were determined by LC-MS/MS.
DON, D3G, CUL, and CUL-glucosides were measured on a 6500+ QTrap MS/MS instrument (Sciex) coupled to an Agilent 1290 UHPLC system. A Kinetex C18 column (150×2.1 mm, 2.6 µm particle size; Phenomenex, Torrance, USA) was used for separation at 30 °C. Mobile phases consisted of mixtures of methanol and water (A, 10% MeOH; B, 97% MeOH) and both contained 5 mM ammonium acetate. A flow rate of 250 µl min^–1 and an injection volume of 1 µl were chosen. The gradient started with 0% B for 1.0 min and then increased linearly to 100% B at 8.5 min. The column was rinsed with 100% B for 3 min, before equilibration with the start conditions for another 3 min until the end of the run at 14.5 min. The switching valve of the mass spectrometer directed the eluent into the ion source between 3.0 min and 11.0 min. […] DON and D3G were detected in negative ion mode first, and after 4.5 min the polarity was changed to positive electrospray mode to detect CUL and CUL-glucosides. […] D3G was determined with the [M+CH3COO]^− ion as the precursor (DP −80 V) with the following SRM settings: m/z 517.2 > 427.1 (CE −30 eV) and m/z 517.2 > 59.1 (CE −85 eV). […]

[3] = tested on: roots of wheat cultivar Apogee seedlings; assay: Extracts from wheat roots exposed to mycotoxin, LC-MS/MS; assay type: in vivo, Triticum aestivum; details: 24 h
Description: as §1
DON, D3G, CUL, and CUL-glucosides were measured on a 6500+ QTrap MS/MS instrument (Sciex) coupled to an Agilent 1290 UHPLC system. A Kinetex C18 column (150×2.1 mm, 2.6 µm particle size; Phenomenex, Torrance, USA) was used for separation at 30 °C. […] DON and D3G were detected in negative ion mode first, and after 4.5 min the polarity was changed to positive electrospray mode to detect CUL and CUL-glucosides. […] D3G was determined with the [M+CH3COO]^− ion as the precursor (DP −80 V) with the following SRM settings: m/z 517.2 > 427.1 (CE −30 eV) and m/z 517.2 > 59.1 (CE −85 eV). […]

OsUGT79 = biological target: T1, OsUGT79 (Oryza sativa subsp. japonica, UniProt Q7XT97); assay: biochemical; assay type: biochemical
T1 construct: made in house; host or cells: E. coli
T1 sequence (Q7XT97 1-466): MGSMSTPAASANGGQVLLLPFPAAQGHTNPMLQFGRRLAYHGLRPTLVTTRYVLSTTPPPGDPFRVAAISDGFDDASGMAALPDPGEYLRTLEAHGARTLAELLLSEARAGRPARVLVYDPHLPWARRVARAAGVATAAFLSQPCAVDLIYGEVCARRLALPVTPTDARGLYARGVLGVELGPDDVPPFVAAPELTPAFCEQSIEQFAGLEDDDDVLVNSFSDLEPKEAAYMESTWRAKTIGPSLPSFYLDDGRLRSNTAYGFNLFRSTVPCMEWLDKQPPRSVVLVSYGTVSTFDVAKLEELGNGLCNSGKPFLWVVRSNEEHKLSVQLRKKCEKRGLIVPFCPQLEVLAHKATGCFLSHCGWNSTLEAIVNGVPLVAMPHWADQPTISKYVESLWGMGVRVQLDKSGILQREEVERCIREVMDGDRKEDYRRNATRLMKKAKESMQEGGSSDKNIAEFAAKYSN

wheat coleoptile tissue = tested on: wheat coleoptile tissue; parameters: method as in Wang and Miller, 1988; details: ref Wang and Miller, 1988, cited from earlier work
[4] = biological target: T2, OsUGT79 H122A/L123A/Q202A (Oryza sativa subsp. japonica, UniProt Q7XT97, H122A/L123A/Q202A); assay type: biochemical
T2 sequence (Q7XT97 1-466 H122A/L123A/Q202A): T1 sequence (Q7XT97 1-466) with H122A, L123A, Q202A

[5] = read-out: Glucosylation rate of DON, percentage of the control

For `CC1(C)CCC[C@]2(C)[C@@H]3[C@H]1[C@@H](O)[C@@]2(C)C[C@H]3O` [CUL, culmorin], the “Effect of addition of CUL to 50 mg l^−1 DON on root length” value [1] was “severe breakdown of resistance to DON”, the inhibition at 10 µg/mL ([2]; Brachypodium distachyon, OE-10R14 roots, 50 mg l^−1 DON with 10 mg l^−1 CUL, read-out: Reduction of D3G synthesis in the presence of CUL) was about 58.6% and the “D3G synthesis in the presence of CUL” value ([2]; TILLING line 6829-3 (wild-type BdUGT5g03300 allele)) was “suppressed”. For the same compound, the “D3G synthesis in the presence of CUL” value ([2]; TILLING mutant 6829-7 (BdUGT5g03300 W345*)) was “not further reduced”, the “Effect of CUL on DON uptake by the roots” value ([3]; 50 mg l^−1 DON with 50 mg l^−1 CUL) was “did not inhibit DON uptake” and the “Reduction in the D3G concentration in the roots caused by CUL” value ([3]; 50 mg l^−1 DON with 50 mg l^−1 CUL vs DON alone) was about 6 fold. For the same compound, the “CUL glucosylation rate compared with DON” value (OsUGT79) was 1–2%, the “Specific activity (glucoside formation)” value (OsUGT79) was 1.85 ± 0.05 nmol/min/mg and the remaining activity at 25 µM (OsUGT79; [5]) was 64 ± 3%. For the same compound, the remaining activity at 125 µM (OsUGT79; [5]) was 33 ± 4%, the “Phytotoxicity on wheat by itself” value (wheat coleoptile tissue; 10 µM CUL (∼3 mg l^−1)) was “no phytotoxicity” and the “Phytotoxicity on wheat coleoptile tissue” value (wheat coleoptile tissue; 1000 µM CUL) was “phytotoxic effect”. The “Specific activity (glucoside formation)” value [4] was 2.89 ± 0.10 nmol/min/mg.
